As a reminder, the IC50 is the concentration at which inhibition is half-maximal.

Assay [1] has as its target T1, recombinant human KDM5B (Homo sapiens, UniProt Q9UGL1).
T1 sequence (Q9UGL1 374-755 limits assumed): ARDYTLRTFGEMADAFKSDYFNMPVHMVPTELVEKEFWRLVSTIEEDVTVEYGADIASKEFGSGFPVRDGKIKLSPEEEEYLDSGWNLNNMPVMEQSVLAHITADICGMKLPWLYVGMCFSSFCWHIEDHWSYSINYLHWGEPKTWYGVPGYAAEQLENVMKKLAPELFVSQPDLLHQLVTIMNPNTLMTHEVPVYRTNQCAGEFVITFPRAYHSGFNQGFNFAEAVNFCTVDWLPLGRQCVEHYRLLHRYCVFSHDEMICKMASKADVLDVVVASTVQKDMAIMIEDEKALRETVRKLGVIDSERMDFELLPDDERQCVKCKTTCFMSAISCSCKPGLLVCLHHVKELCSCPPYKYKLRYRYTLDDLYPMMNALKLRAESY
Kind of assay: 14CO2 capture enzymatic assay (decarboxylation of [1-14C] αKG), KDM5B. It counts as biochemical. Conditions: 10 μM [1-14C] αKG, 90 μM non-labeled αKG, 50 μM peptide substrate, 37° C., 1 hour, final 1% DMSO. The method in brief:
(§1)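 Truncated recombinant human KDM5B (H3K4me3 peptide) or KDM4A (H3K9me3 peptide), 50 μM peptide, with 10 μM [1-14C]αKG plus 90 μM unlabeled αKG, 10 μM Fe(SO4), 2 mM ascorbate in pH 7.4 HEPES, 1 h at 37 °C, 1% DMSO. Released 14CO2 trapped on Ba(OH)2 filter; IC50 by non-linear fit.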

Assay [2] addresses T2, recombinant human KDM4A (Homo sapiens, UniProt O75164).
T2 construct: made in house
T2 sequence (O75164 1-359 limits assumed): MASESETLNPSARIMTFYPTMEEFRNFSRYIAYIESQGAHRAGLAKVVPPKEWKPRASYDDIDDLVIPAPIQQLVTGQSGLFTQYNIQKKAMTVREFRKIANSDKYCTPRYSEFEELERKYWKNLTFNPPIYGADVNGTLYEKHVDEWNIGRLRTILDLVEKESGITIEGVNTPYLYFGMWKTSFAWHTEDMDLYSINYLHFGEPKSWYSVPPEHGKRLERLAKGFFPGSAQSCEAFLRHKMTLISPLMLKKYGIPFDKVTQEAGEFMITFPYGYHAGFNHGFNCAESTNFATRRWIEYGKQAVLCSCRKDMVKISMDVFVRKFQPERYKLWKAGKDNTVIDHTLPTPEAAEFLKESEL
Briefly: 14CO2 capture enzymatic assay (decarboxylation of [1-14C] αKG), KDM4A. It counts as biochemical. The conditions noted are these: 10 μM [1-14C] αKG, 90 μM non-labeled αKG, 50 μM peptide substrate, 37° C., 1 hour, final 1% DMSO. In outline: as §1

As to `Cn1cc(-c2cc(C#N)c(O)c(C(=O)CCC(=O)O)n2)cn1` [Example 16, 4-[4-Cyano-3-hydroxy-6-(1-methyl-1H-pyrazol-4-yl)-pyridin-2-yl]-4-oxo-butyric acid], the IC50 in assay [1] was 210 nM; in assay [2], above 40000 nM.

Regarding `N#Cc1cc(Cc2ccccc2C(F)(F)F)nc(C(=O)CCC(=O)O)c1O` [Example 41, 4-[4-Cyano-3-hydroxy-6-(2-trifluoromethyl-benzyl)-pyridin-2-yl]-4-oxo-butyric acid], the IC50 in assay [1] was found to be 150 nM; in assay [2], 22000 nM.

As to `N#Cc1cc(Oc2ccccc2Cl)cc(C(=O)CCC(=O)O)c1O` [Example 136, 4-[5-(2-Chloro-phenoxy)-3-cyano-2-hydroxy-phenyl]-4-oxo-butyric acid], the IC50 in assay [1] is 370 nM; in assay [2] it was above 40000 nM.

On to `N#Cc1cc(Br)c(O)c(C(=O)CCC(=O)O)n1` [Example 2, 4-(4-Bromo-6-cyano-3-hydroxy-pyridin-2-yl)-4-oxo-butyric acid], for which the IC50 in assay [1] is 310 nM; in assay [2], 19000 nM.

Take `N#Cc1cc(Cc2cccc3ccccc23)nc(C(=O)CCC(=O)O)c1O` [Example 34, 4-(4-Cyano-3-hydroxy-6-naphthalen-1-ylmethyl-pyridin-2-yl)-4-oxo-butyric acid]: the IC50 turned out to be 60 nM in assay [1] and 12000 nM in assay [2].

For the compound `Cc1cc(F)cc(C)c1Cc1cc(C#N)c(O)c(C(=O)CCC(=O)O)n1` [Example 151, 4-[4-Cyano-6-(4-fluoro-2,6-dimethyl-benzyl)-3-hydroxy-pyridin-2-yl]-4-oxo-butyric acid], the results for the IC50 in assay [1] and in assay [2] were 500 nM and 1500 nM, respectively.

`N#Cc1cc(-c2cccc(F)c2Cl)nc(C(=O)CCC(=O)O)c1O` [Example 107, 4-[6-(2-Chloro-3-fluoro-phenyl)-4-cyano-3-hydroxy-pyridin-2-yl]-4-oxo-butyric acid]: the results for the IC50 in assay [1] and in assay [2] were 320 nM and above 40000 nM, respectively.

`N#Cc1cc(Cc2ccc(F)cc2)nc(C(=O)CCC(=O)O)c1O` [Example 40, 4-[4-Cyano-6-(4-fluoro-benzyl)-3-hydroxy-pyridin-2-yl]-4-oxo-butyric acid]: the values for the IC50 in assay [1] and in assay [2] were 60 nM and 17000 nM, respectively.

For the compound `N#Cc1cc(Sc2ccccc2)nc(C(=O)CCC(=O)O)c1O` [Example 78, 4-(4-Cyano-3-hydroxy-6-phenylsulfanyl-pyridin-2-yl)-4-oxo-butyric acid], the IC50 in assay [1] is 90 nM; in assay [2] it was above 40000 nM.

On to `N#Cc1cc(-c2ccccc2)cc(C(=O)CCC(=O)O)c1O` [Example 104, 4-(5-Cyano-4-hydroxy-biphenyl-3-yl)-4-oxo-butyric acid], for which the IC50 in assay [1] is 460 nM; in assay [2] it was above 40000 nM.

As for `N#Cc1cc(C#N)c(O)c(C(=O)CCC(=O)O)n1` [Example 3, 4-(4,6-Dicyano-3-hydroxy-pyridin-2-yl)-4-oxo-butyric acid], the IC50 was determined as 110 nM in assay [1] and 16000 nM in assay [2].

For the compound `COc1cccc(F)c1Cc1cc(C#N)c(O)c(C(=O)CCC(=O)O)n1` [Example 150, 4-[4-Cyano-6-(2-fluoro-6-methoxy-benzyl)-3-hydroxy-pyridin-2-yl]-4-oxo-butyric acid], the IC50 in assay [1] came to 280 nM; in assay [2], 27000 nM.

In the case of `Cc1cccc(Cl)c1Cc1cc(C#N)c(O)c(C(=O)CCC(=O)O)n1` [Example 123, 4-[6-(2-Chloro-6-methyl-benzyl)-4-cyano-3-hydroxy-pyridin-2-yl]-4-oxo-butyric acid], the figures for the IC50 in assay [1] and in assay [2] were 120 nM and 3000 nM, respectively.

For `N#Cc1cc(-c2ccccc2Cl)nc(C(=O)CCC(=O)O)c1O` [Example 70, 4-[6-(2-Chloro-phenyl)-4-cyano-3-hydroxy-pyridin-2-yl]-4-oxo-butyric acid], the IC50 was 300 nM in assay [1] and above 40000 nM in assay [2].

Consider `Cc1ccc(-c2cc(C#N)c(O)c(C(=O)CCC(=O)O)n2)cc1` [Example 73, 4-(4-Cyano-3-hydroxy-6-p-tolyl-pyridin-2-yl)-4-oxo-butyric acid], for which the values for the IC50 in assay [1] and in assay [2] were 110 nM and above 40000 nM, respectively.

Regarding `N#Cc1cc(-c2ccccn2)nc(C(=O)CCC(=O)O)c1O` [Example 11, 4-(4-Cyano-5-hydroxy-[2,2′]bipyridinyl-6-yl)-4-oxo-butyric acid], the IC50 in assay [1] was 590 nM; in assay [2], above 40000 nM.

`N#Cc1cc(Cc2c(Cl)cccc2C(F)(F)F)nc(C(=O)CCC(=O)O)c1O` [Example 59, 4-[6-(2-Chloro-6-trifluoromethyl-benzyl)-4-cyano-3-hydroxy-pyridin-2-yl]-4-oxo-butyric acid]: the IC50 in assay [1] is 330 nM; in assay [2], above 40000 nM.

Take `Cc1ccc(C#N)cc1-c1cc(C#N)c(O)c(C(=O)CCC(=O)O)n1` [Example 100, 4-[4-Cyano-6-(5-cyano-2-methyl-phenyl)-3-hydroxy-pyridin-2-yl]-4-oxo-butyric acid]: the IC50 was 430 nM in assay [1] and above 40000 nM in assay [2].

As to `Cc1ccc(Cl)cc1-c1cc(C#N)c(O)c(C(=O)CCC(=O)O)n1` [Example 91, 4-[6-(5-Chloro-2-methyl-phenyl)-4-cyano-3-hydroxy-pyridin-2-yl]-4-oxo-butyric acid], the IC50 was 170 nM in assay [1] and above 40000 nM in assay [2].

On to `CN(C(=O)c1ccccc1)c1cc(C#N)c(O)c(C(=O)CCC(=O)O)n1` [Example 159, 4-[6-(Benzoyl-N-methyl-amino)-4-cyano-3-hydroxy-pyridin-2-yl]-4-oxo-butyric acid], for which the IC50 is 990 nM in assay [1] and above 40000 nM in assay [2].

In the case of `N#Cc1cc(-c2ccc(C(F)(F)F)cc2Cl)nc(C(=O)CCC(=O)O)c1O` [Example 115, 4-[6-(2-Chloro-4-trifluoromethyl-phenyl)-4-cyano-3-hydroxy-pyridin-2-yl]-4-oxo-butyric acid], the results for the IC50 in assay [1] and in assay [2] were 230 nM and above 40000 nM, respectively.

Turning to `N#Cc1cc(Cc2c(F)cccc2C(F)(F)F)nc(C(=O)CCC(=O)O)c1O` [Example 60, 4-[6-(2-Fluoro-6-trifluoromethyl-benzyl)-4-cyano-3-hydroxy-pyridin-2-yl]-4-oxo-butyric acid], the IC50 is 330 nM in assay [1] and above 40000 nM in assay [2].

Source of the values: US20240002344A1, “COMPOUNDS, COMPOSITIONS AND METHODS FOR HISTONE LYSINE DEMETHYLASE INHIBITION” (FibroGen, Inc., priority 2020, published 2024).
